In paper PMC12040169 (PLOS Biology, 2025) one finds viability data, which are given here for 71 compounds.

The nature of the series: in vitro. The following applies: human, hela cells, % viability.
As a reminder, the viability is a read-out of living cells in per cent, often relative to untreated cells. With `Cc1c(S(=O)(=O)Nc2cc(C(F)(F)F)ccc2N2CCOCC2)cnn1-c1ccccc1` [CBK062551], the viability at 28.5 h, 10 µM worked out at 99.7%.

For the compound `O=S(=O)(Nc1cc(C(F)(F)F)ccc1N1CCOCC1)c1ccc(-c2ccccn2)s1` [CBK062557], the viability at 28.5 h, 10 µM was 79.5%.

On to `O=S(=O)(Nc1cccc2nonc12)c1ccccc1Br` [CBK062577], for which the viability at 28.5 h, 10 µM was 102%.

In the case of `O=S(=O)(Nc1nnn[nH]1)c1ccc(-c2ccccn2)s1` [CBK062589], the viability at 28.5 h, 10 µM came out at 106%.

Regarding `Cn1nc(-c2ccc(S(=O)(=O)NCCN3CCNC3=O)s2)cc1C(F)(F)F` [CBK062610], the viability at 28.5 h, 10 µM turned out to be 91.6%.

As to `CC(=O)Nc1nonc1-c1nc2ccccc2n1CCC#N` [CBK062641], the viability at 28.5 h, 10 µM was determined as 100%.

In the case of `CCn1c(-c2nonc2NC(C)=O)nc2ccccc21` [CBK062645], the viability at 28.5 h, 10 µM is 80%.

As for `CCCCCCC(C)n1c(-c2nonc2N)nc2ccccc21` (centres unmarked) [CBK062648], the viability at 28.5 h, 10 µM was 94.2%.

Take `N#Cc1nonc1NCn1nnc2ccccc21` [CBK062650]: the viability at 28.5 h, 10 µM worked out at 81.7%.

On to `N#CCn1nnc(-c2ccc3c(c2)OCO3)n1` [CBK062663], for which the viability at 28.5 h, 10 µM is 98.7%.

Regarding `CCN(C(=O)c1ccc(=O)[nH]c1)C(CC1CCCCC1)c1ccccc1` (centres unmarked) [CBK062678], the viability at 28.5 h, 10 µM came out at 91.1%.

Consider `CC(C)CN(CC(=O)NC1(c2ccccc2)CCC1)C(=O)N(C)C` [CBK062704], for which the viability at 28.5 h, 10 µM is 96.1%.

For the compound `O=S(=O)(c1ccc(C(F)(F)F)cc1Cl)N1CCN(Cc2ccc(F)cc2F)CC1` [CBK062739], the viability at 28.5 h, 10 µM is 107%.

Regarding `Cc1cc(CN2CCN(S(=O)(=O)c3ccc(-c4ccccc4)cc3)CC2)cc(C)c1O` [CBK062747], the viability at 28.5 h, 10 µM is 115%.

Turning to `N#Cc1ccc(CN2CCN(S(=O)(=O)c3ccc(-c4ccccc4)cc3)CC2)cc1` [CBK062752], the viability at 28.5 h, 10 µM is 105%.

Take `CCOc1ccc(S(=O)(=O)N2CCCN(Cc3ccc(F)cc3F)CC2)c2cccnc12` [CBK062757]: the viability at 28.5 h, 10 µM amounted to 109%.

Consider `CCOc1ccc(S(=O)(=O)N2CCCN(CC(C)C)CC2)c2cccnc12` [CBK062758], for which the viability at 28.5 h, 10 µM worked out at 97%.

For the compound `CCOc1ccc(S(=O)(=O)N2CCCN(Cc3ccc(C#N)cc3)CC2)c2cccnc12` [CBK062759], the viability at 28.5 h, 10 µM was determined as 107%.

As for `N#Cc1cc(CN2CCCN(S(=O)(=O)c3ccc(C(=O)c4ccccc4)cc3)CC2)ccc1F` [CBK062768], the viability at 28.5 h, 10 µM stood at 109%.

In the case of `O=C(c1ccccc1)c1ccc(S(=O)(=O)N2CCCN(Cc3c[nH]nc3-c3ccccc3)CC2)cc1` [CBK062773], the viability at 28.5 h, 10 µM was determined as 85.1%.

For `O=C(c1ccccc1)c1ccc(S(=O)(=O)N2CCCN(Cc3cc(F)c(F)c(F)c3)CC2)cc1` [CBK062777], the viability at 28.5 h, 10 µM was 91.2%.

For the compound `CCOC(=O)C1CC1CN1CCN(S(=O)(=O)c2ccc(OCC)c3ncccc23)CC1` (centres unmarked) [CBK062785], the viability at 28.5 h, 10 µM is 92.9%.

In the case of `O=S(=O)(c1ccc(-n2cnc(Cl)c2Cl)cc1)N1CCCN(Cc2csc(-c3ccccc3)n2)CC1` [CBK062790], the viability at 28.5 h, 10 µM came out at 104%.

As to `CCOc1ccc(S(=O)(=O)N2CCN(Cc3cccc(F)c3C)CC2)c2cccnc12` [CBK062794], the viability at 28.5 h, 10 µM turned out to be 78.3%.

In the case of `CCOc1ccc(S(=O)(=O)N2CCN(Cc3cc(C(=O)OC)n(C)c3)CC2)c2cccnc12` [CBK062796], the viability at 28.5 h, 10 µM was found to be 92.6%.

As for `O=S(=O)(c1ccc(-n2cnc(Cl)c2Cl)cc1)N1CCN(Cc2ccc(O)c(F)c2)CC1` [CBK062803], the viability at 28.5 h, 10 µM was 95.8%.

Take `COC(=O)CCc1ccc(S(=O)(=O)N2CCN(Cc3ccc(O)c(F)c3)CC2)cc1` [CBK062813]: the viability at 28.5 h, 10 µM turned out to be 88.9%.

For the compound `COC(=O)CCc1ccc(S(=O)(=O)N2CCN(Cc3cc(C)c(O)c(C)c3)CC2)cc1` [CBK062814], the viability at 28.5 h, 10 µM is 113%.

For `CCC(C)(C)c1ccc(S(=O)(=O)N2CCN(Cc3cccc4cccnc34)CC2)cc1` [CBK062830], the viability at 28.5 h, 10 µM came out at 98.1%.

As to `CCC(C)(C)c1ccc(S(=O)(=O)N2CCN(Cc3c(C)nn(C)c3C)CC2)cc1` [CBK062835], the viability at 28.5 h, 10 µM is 97.2%.

Consider `COc1ccc(CN2CCCN(S(=O)(=O)c3ccc(C(=O)c4ccccc4)cc3)CC2)cc1F` [CBK062855], for which the viability at 28.5 h, 10 µM was 97.7%.

Regarding `CCCC(=O)c1ccc(S(=O)(=O)N2CCN(CCCOC3CCCCO3)CC2)cc1` (centres unmarked) [CBK062858], the viability at 28.5 h, 10 µM stood at 96.6%.

`O=S(=O)(c1ccc(C(F)(F)F)cc1Cl)N1CCN(Cc2c[nH]nc2-c2cccs2)CC1` [CBK062864]: the viability at 28.5 h, 10 µM is 108%.

For `CCC(C)(C)c1ccc(S(=O)(=O)N2CCCN(Cc3ccnc4ccccc34)CC2)cc1` [CBK062865], the viability at 28.5 h, 10 µM was 92.1%.

As to `CCC(C)(C)c1ccc(S(=O)(=O)N2CCCN(Cc3cccc4c3OCO4)CC2)cc1` [CBK062872], the viability at 28.5 h, 10 µM came to 100%.

`CCC(C)(C)c1ccc(S(=O)(=O)N2CCCN(Cc3c[nH]c(=O)[nH]c3=O)CC2)cc1` [CBK062881]: the viability at 28.5 h, 10 µM was found to be 91.8%.

In the case of `CCC(C)(C)c1ccc(S(=O)(=O)N2CCCN(Cc3c(-c4ccccc4)noc3C)CC2)cc1` [CBK062888], the viability at 28.5 h, 10 µM amounted to 92.8%.

In the case of `CCCC(=O)c1ccc(S(=O)(=O)N2CCCN(Cc3ccc(C#N)cc3)CC2)cc1` [CBK062895], the viability at 28.5 h, 10 µM was 106%.

Take `CCCC(=O)c1ccc(S(=O)(=O)N2CCCN(Cc3cc(Br)cs3)CC2)cc1` [CBK062896]: the viability at 28.5 h, 10 µM was found to be 91.2%.

Turning to `CCCC(=O)c1ccc(S(=O)(=O)N2CCCN(Cc3cccnc3N3CCOCC3)CC2)cc1` [CBK062900], the viability at 28.5 h, 10 µM came to 93.9%.

Take `CCCC(=O)c1ccc(S(=O)(=O)N2CCCN(Cc3ccc4cccc(O)c4n3)CC2)cc1` [CBK062901]: the viability at 28.5 h, 10 µM was 102%.

Regarding `CCCC(=O)c1ccc(S(=O)(=O)N2CCCN(Cc3ccc(F)c(C#N)c3)CC2)cc1` [CBK062910], the viability at 28.5 h, 10 µM was 114%.

As to `CCCC(=O)c1ccc(S(=O)(=O)N2CCCN(Cc3c[nH]nc3-c3ccccc3)CC2)cc1` [CBK062916], the viability at 28.5 h, 10 µM turned out to be 83.9%.

In the case of `CCCC(=O)c1ccc(S(=O)(=O)N2CCCN(Cc3ccc(F)c(C(F)(F)F)c3)CC2)cc1` [CBK062918], the viability at 28.5 h, 10 µM stood at 93%.

As to `N#Cc1ccc(CN2CCCN(S(=O)(=O)c3ccc(C(F)(F)F)cc3Cl)CC2)cc1` [CBK062939], the viability at 28.5 h, 10 µM was 98%.

With `CC(C)CN1CCCN(S(=O)(=O)c2ccc(C(F)(F)F)cc2Cl)CC1` [CBK062943], the viability at 28.5 h, 10 µM is 86.5%.

In the case of `CCCC(=O)c1ccc(S(=O)(=O)N2CCCN(Cc3c(C)[nH]c(C(=O)OCC)c3C)CC2)cc1` [CBK062947], the viability at 28.5 h, 10 µM came out at 101%.

For the compound `CCCC(=O)c1ccc(S(=O)(=O)N2CCN(Cc3ccc(O)c(F)c3)CC2)cc1` [CBK062959], the viability at 28.5 h, 10 µM was determined as 111%.

On to `N#Cc1ccc(CN2CCN(S(=O)(=O)c3ccc(-n4cnc(Cl)c4Cl)cc3)CC2)cc1` [CBK062972], for which the viability at 28.5 h, 10 µM was 104%.

As for `Cc1c(F)cccc1CN1CCCN(S(=O)(=O)c2ccc(-c3ccccc3)cc2)CC1` [CBK062977], the viability at 28.5 h, 10 µM worked out at 95.9%.

In the case of `COC(=O)CCc1ccc(S(=O)(=O)N2CCCN(Cc3cc(Cl)cc(Cl)c3)CC2)cc1` [CBK062982], the viability at 28.5 h, 10 µM worked out at 97.2%.

In the case of `COC(=O)CCc1ccc(S(=O)(=O)N2CCCN(Cc3cccc(C(F)(F)F)c3)CC2)cc1` [CBK062983], the viability at 28.5 h, 10 µM amounted to 100%.

As to `COC(=O)CCc1ccc(S(=O)(=O)N2CCCN(Cc3cccc(Cl)c3Cl)CC2)cc1` [CBK062988], the viability at 28.5 h, 10 µM was found to be 93.5%.

For the compound `COC(=O)CCc1ccc(S(=O)(=O)N2CCCN(Cc3cccc4c3OCO4)CC2)cc1` [CBK062993], the viability at 28.5 h, 10 µM was found to be 88.8%.

With `COC(=O)CCc1ccc(S(=O)(=O)N2CCCN(Cc3ccc(Cl)c(C(F)(F)F)c3)CC2)cc1` [CBK062995], the viability at 28.5 h, 10 µM came to 102%.

With `COC(=O)CCc1ccc(S(=O)(=O)N2CCCN(Cc3cc(F)c(F)c(F)c3)CC2)cc1` [CBK062998], the viability at 28.5 h, 10 µM is 103%.

As for `CC(C)CN1CCCN(S(=O)(=O)c2ccc(-n3cnc(Cl)c3Cl)cc2)CC1` [CBK063017], the viability at 28.5 h, 10 µM came to 88.5%.

`Cc1nc(CN2CCCN(S(=O)(=O)c3ccc(C(=O)c4ccccc4)cc3)CC2)c[nH]1` [CBK063029]: the viability at 28.5 h, 10 µM was found to be 113%.

Turning to `O=S(=O)(c1ccc(C(F)(F)F)cc1Cl)N1CCCN(Cc2cccc3c2OCO3)CC1` [CBK063067], the viability at 28.5 h, 10 µM was 98.6%.

On to `CC(=O)c1ccc(CN2CCN(S(=O)(=O)c3ccc(C(F)(F)F)cc3Cl)CC2)cc1` [CBK063072], for which the viability at 28.5 h, 10 µM was determined as 96%.

With `O=S(=O)(c1ccc(C(F)(F)F)cc1Cl)N1CCN(Cc2ccc3cccc(O)c3n2)CC1` [CBK063073], the viability at 28.5 h, 10 µM amounted to 94.1%.

`Cc1cc(CN2CCN(S(=O)(=O)c3ccc(C(F)(F)F)cc3Cl)CC2)cc(C)c1O` [CBK063074]: the viability at 28.5 h, 10 µM is 103%.

As to `O=S(=O)(c1ccc(C(F)(F)F)cc1Cl)N1CCN(Cc2cccc3cccnc23)CC1` [CBK063075], the viability at 28.5 h, 10 µM was 110%.

Take `COC(=O)c1cc(CN2CCCN(S(=O)(=O)c3ccc(-n4cnc(Cl)c4Cl)cc3)CC2)cn1C` [CBK063080]: the viability at 28.5 h, 10 µM came out at 85.2%.

Turning to `COC(=O)CCc1ccc(S(=O)(=O)N2CCCN(Cc3ccc(C)o3)CC2)cc1` [CBK063081], the viability at 28.5 h, 10 µM was 99.8%.

On to `COC(=O)CCc1ccc(S(=O)(=O)N2CCCN(Cc3c[nH]c(=O)[nH]c3=O)CC2)cc1` [CBK063082], for which the viability at 28.5 h, 10 µM stood at 113%.

In the case of `Cc1nc[nH]c1CN1CCCN(S(=O)(=O)c2ccc(-n3cnc(Cl)c3Cl)cc2)CC1` [CBK063087], the viability at 28.5 h, 10 µM came to 91.7%.

As for `O=S(=O)(c1ccc(-n2cnc(Cl)c2Cl)cc1)N1CCCN(Cc2ccc3cccc(O)c3n2)CC1` [CBK063088], the viability at 28.5 h, 10 µM was found to be 92%.

As for `COC(=O)c1cc(CN2CCCN(S(=O)(=O)c3ccc(C(F)(F)F)cc3Cl)CC2)cn1C` [CBK063097], the viability at 28.5 h, 10 µM was 99.4%.

Consider `N#Cc1cc(CN2CCCN(S(=O)(=O)c3ccc(C(F)(F)F)cc3Cl)CC2)ccc1F` [CBK063100], for which the viability at 28.5 h, 10 µM turned out to be 98.8%.

On to `Cc1cc(CN2CCCN(S(=O)(=O)c3ccc(C(F)(F)F)cc3Cl)CC2)cc(C)c1O` [CBK063102], for which the viability at 28.5 h, 10 µM was determined as 91.2%.
